Series [1] relates to Sheep antiserum to ZD1694 (S37B14). Description: Radioimmunoassay: cross-reaction of S37B14 antiserum. The class given is binding. To be noted: for Cross-reaction of S37B14 antiserum (%): relative amount of ZD1694 and cross-reactant required to inhibit antibody binding of radiolabel by 50%. The source says:
(§1) British Joumal of Cancer (1998) 77(2), 221-226 ? […] Tomudex is now available for the treat- ment of advanced colorectal cancer in several countries. […] The limit of detection of this assay for plasma was 0.2 g1M when a solid-phase extraction was used. […] Separation of polyglutamated metabo- lites by HPLC was followed by quantitation in fractions using radiochemical analysis (Jackman et al, 1991c; Gibson et al, 1993) or by measuring inhibition of TS (Sikora et al, 1988). […] The dog was chosen as an additional model, because, unlike mice, plasma levels of thymidine are low and this species is much more sensitive to the effects of TS inhibitors than rodents. […] Acetonitrile was from Fisons, Dextran T70 from Pharmacia and all other chemicals from Sigma. Solutions were prepared with deionized water. […] Stock solutions (10 mM) were prepared in 0.15 M sodium bicar- bonate and stored at -20?C. For the mouse studies, the drug was formulated in 0.05 M sodium bicarbonate and the pH was adjusted to 8.5-9.0. Radioimmunoassay The assay diluent was 0.05 M phosphate buffer pH 7.4, containing 1 g 1-' gelatin and 6 g 1-' sodium chloride (PBSG). Initially, all dilutions and dispensing of standards and samples were made with a Dilutrend diluter, but a Multiprobe (Canberra Packard) auto- mated liquid-handling system was later programmed to perform these steps in the assay. […] Samples were assayed at three appropriate dilutions to ensure that the results of at least two dilutions fell on the linear portion of the stan- dard curve, and samples were reassayed at different dilutions if necessary. The antiserum was diluted in PBSG so that approxi- mately 40% of total radioactivity was bound (Bo) to antibody. This dilution was previously determined from an antiserum dilution curve and was 1:300 to 1:500 depending on the batch of radiolabel used. […] Diluted standards and samples (0.1 ml) were added in duplicate to numbered LP3 tubes (Luckham) or to deep-well blocks (Beckman) with 0.3 ml of assay diluent, 0.1 ml of diluted anti- serum and 0.1 ml of diluted label, mixed and left to stand in iced water for 1 h. Each assay included total counts and non-specific- binding tubes, containing only the radiolabel and buffer, and zero- standard-binding tubes (Bo), which contained only radiolabel and antiserum. The antibody-bound radiolabel was separated from unbound radiolabel by the addition of ice-cold dextran-coated charcoal [2.5% (w/v) activated charcoal (Sigma) coated with 0.25% (w/v) Dextran T-70 (Pharmacia)] to all but the total-counts tubes for 10 min. After centrifugation at 1000 g for 10 min at 4?C, 0.5 ml aliquots of supematant were taken from each assay tube for scintillation counting in 4.0 ml of Ultima gold scintillant (Canberra-Packard). […] The radioimmunoassays were carried out at the Institute of Cancer Research. […] The limit of detection for 6-8 x 10^6 cells is 0.05 µM intracellular concentration. […] Plasma was immediately separated from the; approximately blood by microcentrifugation and stored at -20?C until assayed. Liver and kidney samples were immediately frozen on solid carbon dioxide. Gut epithelium samples were obtained 1 day after drug treatment.

In series [2] the target is Thymidylate synthase (TS; EC 2.1.1.45), mouse enzyme. To be noted: ref Jackman et al, 1991a, Gibson et al, 1993, read-out: Kj for mouse enzyme; cited from earlier work.
The conditions of series [3]: mouse, in vivo; cited from earlier work.
On the set-up of series [4]: method as in Aherme et al, 1996b. To be noted: ref Aherme et al, 1996b; cited from earlier work.
Series [5] in a line: Pharmacokinetic studies in dogs: plasma and tissue levels by radioimmunoassay. The series is classed as in vivo, Alderley Park Beagle dogs. The source says:
British Joumal of Cancer (1998) 77(2), 221-226 ? […] Tomudex is now available for the treat- ment of advanced colorectal cancer in several countries. […] The limit of detection of this assay for plasma was 0.2 g1M when a solid-phase extraction was used. […] Separation of polyglutamated metabo- lites by HPLC was followed by quantitation in fractions using radiochemical analysis (Jackman et al, 1991c; Gibson et al, 1993) or by measuring inhibition of TS (Sikora et al, 1988). […] The dog was chosen as an additional model, because, unlike mice, plasma levels of thymidine are low and this species is much more sensitive to the effects of TS inhibitors than rodents. […] Acetonitrile was from Fisons, Dextran T70 from Pharmacia and all other chemicals from Sigma. Solutions were prepared with deionized water. […] Stock solutions (10 mM) were prepared in 0.15 M sodium bicar- bonate and stored at -20?C. For the mouse studies, the drug was formulated in 0.05 M sodium bicarbonate and the pH was adjusted to 8.5-9.0. Radioimmunoassay The assay diluent was 0.05 M phosphate buffer pH 7.4, containing 1 g 1-' gelatin and 6 g 1-' sodium chloride (PBSG). […] The antiserum was diluted in PBSG so that approxi- mately 40% of total radioactivity was bound (Bo) to antibody. This dilution was previously determined from an antiserum dilution curve and was 1:300 to 1:500 depending on the batch of radiolabel used. […]

On the set-up of series [6]: method as in Jackman et al, 1995a. To be noted: mice, ref Jackman et al, 1995a, cited from earlier work.
For a further series, the system named is L1210:RD1694 cells. Details: method as in Jackman et al, 1995c. To be noted: resistant line, after 24 h; ref Jackman et al, 1995c; cited from earlier work.
Details of series [7]: method as in Judson et al, 1996. To be noted: man, ref Judson et al, 1996, cited from earlier work.
Series [8] concerns L5178Y TK-/- mouse lymphoma. Details: method as in Jackman et al, 1991b. To be noted: single i.p. injection 10 mg kg-1; ref Jackman et al, 1991b; cited from earlier work.
The next series has as its system L1210 cells. Details: method as in Jackman et al, 1995c. To be noted: L1210, 0.1 µM, 24 h; ref Jackman et al, 1995c; cited from earlier work.
Series [9] in a line: Mouse pharmacokinetic studies: plasma and tissue levels by radioimmunoassay. To be noted: female, plasma, ip. The class given is in vivo, female DBA2 mice.
Source text: as §1

The test system of series [10] is thymidine salvage competent models. Also on record: method as in Jackman et al, 1991a and b. To be noted: repeated treatment over 5 days; ref Jackman et al, 1991a and b; cited from earlier work.
Details of series [11]: method as in Jodrell et al, 1991. To be noted: mice, 100 mg kg-1, HPLC; ref Jodrell et al, 1991; cited from earlier work.

Values joined by “and” are separate entries in the source; they are usually repeats but may differ in a detail not shown here. Identical values can stand only once. “Also recorded” adds a separate entry of the source. Some results are limits rather than exact numbers.

Consider `Cc1nc2ccc(CN(C)c3ccc(C(=O)NC(CCC(=O)NC(CCC(=O)O)C(=O)O)C(=O)O)s3)cc2c(=O)[nH]1` (stereo not shown) [Diglutamate], for which the “Cross-reaction of S37B14 antiserum (%)” value in series [1] is reported as 90%.
For `Cc1nc2ccc(CN(C)c3ccc(C(=O)NC(CCC(=O)NC(CCC(=O)NC(CCC(=O)NC(CCC(=O)O)C(=O)O)C(=O)O)C(=O)O)C(=O)O)s3)cc2c(=O)[nH]1` (stereo not shown) [Tetraglutamate], the “Cross-reaction of S37B14 antiserum (%)” value in series [1] came to 110%. In series [2], the Ki was 1 nM.
In the case of `C#CCN(Cc1cc2c(=O)[nH]c(C)nc2cc1C)c1ccc(C(=O)N[C@@H](CCC(=O)N[C@H](CCC(=O)O)C(=O)O)C(=O)O)c(F)c1` [CB30900], the “liver levels relative to plasma levels” value in [3] is “sixfold higher”.
In the case of `Cc1nc2ccc(CN(C)c3ccc(C(=O)N[C@@H](CCC(=O)N[C@@H](CCC(=O)N[C@@H](CCC(=O)N[C@@H](CCC(=O)N[C@@H](CCC(=O)O)C(=O)O)C(=O)O)C(=O)O)C(=O)O)C(=O)O)s3)cc2c(=O)[nH]1` [Pentaglutamate], the “Cross-reaction of S37B14 antiserum (%)” value in [1] came to 110%.
Same read-out and setting: next, `CN1c2c(nc(N)[nH]c2=O)NCC1CNc1ccc(C(=O)N[C@@H](CCC(=O)O)C(=O)O)cc1` (stereo partly shown) [Methyl-THFA]: less than 0.01%.
Turning to `C#CCN(Cc1cc2c(=O)[nH]c(C)nc2cc1C)c1ccc(C(=O)N[C@@H](CCc2nnn[nH]2)C(=O)O)c(F)c1` [ZD933 1], the “tissue to plasma ratios” value in series [4] is listed as “low tissue to plasma ratios”.
For the molecule `Cc1nc2ccc(CN(C)c3ccc(C(=O)N[C@@H](CCC(=O)O)C(=O)O)s3)cc2c(=O)[nH]1` [ZD1694, N-[5-[N-(3,4-dihydro-2-methyl-4-oxoquinazolin-6-ylmethyl)-N-methylamino]-2-thenoyl]-L-glutamic acid], the concentration at 28 day in series [5] (Alderley Park Beagle, dog, plasma, iv, 0.2 mg kg-1 single i.v. bolus, 28 days after administration) was ~0.4 ng/mL and ~0.85 nM. Besides, in series [5] (at 28 days, limit of detection 0.015 nmol g-1), the “gastrointestinal tissue drug concentrations” value is recorded as “near to the limit of detection; also recorded: at or near the limit of detection”. In addition, the “radioactivity in the tissues present as polyglutamates” value in [6] (24 h after tritiated ZD1694 5 mg kg-1) was approximately 80%. In series [6] (tritiated ZD1694), the “polyglutamates in mouse plasma” value was “No polyglutamates were found”. Also, the “level of total drug ZD1694 estimated by radioassay” value with L1210:RD1694 cells was 0.44 gM. Further, the third phase half-life in series [7] (plasma) was 257 h. Moreover, in [7] (up to 4 weeks after drug administration), the “drug measured in the plasma” value was 1 to 10 ng/mL. In addition, the anti-tumour effect entry in series [8] is given as “curative”; in [10] it was “led to anti- tumour activity”. The IC50 in series [1] (ZD1694 standard curve, read-out: mean dose at 50% inhibition of binding) is 1.47 nM. In addition, in series [1], the “Cross-reaction of S37B14 antiserum (%)” value is given as 100%. The “intracellular concentration of ZD1694 by radioassay” value in the series with L1210 cells is recorded as 3.8 gM. Further, the concentration at 1 day in series [9] (DBA2, mouse, single i.p. 1 mg kg-1, day 1) was determined as 2.26 ng/mL; in [9] (DBA2, mouse, single i.p. 10 mg kg-1, day 1), 7.18 nM; in [9] (DBA2, mouse, single i.p. 100 mg kg-1, day 1) it was 30.7 nM. This molecule displayed a concentration at 4 day in series [9] (DBA2, mouse, single i.p. 100 mg kg-1, day 4) of 2.39 nM. Further, in [9] (mouse, DBA2 mice, 5 mg kg-1 i.p., non-compartmental model, read-out: plasma elimination phase (half-life) (converted)), the half-life (in general, the time needed for the level to fall by half in the phase considered) is approximately 2.7 h. In series [11], the plasma half-life is approximately 0.5 h.
Take `Cc1nc2ccc(CN(C)c3ccc(C(=O)NC(CCC(=O)NC(CCC(=O)NC(CCC(=O)O)C(=O)O)C(=O)O)C(=O)O)s3)cc2c(=O)[nH]1` (stereo not shown) [Triglutamate]: the “Cross-reaction of S37B14 antiserum (%)” value in series [1] stood at 92%.
Still for that read-out and setting: as for `Cc1nc2ccc(CN(C)c3ccc(C(=O)NC(CCC(=O)NC(CCC(=O)NC(CCC(=O)NC(CCC(=O)NC(CCC(=O)NC(CCC(=O)O)C(=O)O)C(=O)O)C(=O)O)C(=O)O)C(=O)O)C(=O)O)s3)cc2c(=O)[nH]1` (stereo not shown) [Hexaglutamate], the figure is 100%.
Still for that read-out and setting: as for `Nc1nc2c(c(=O)[nH]1)N(C=O)C(CNc1ccc(C(=O)N[C@@H](CCC(=O)O)C(=O)O)cc1)CN2` (stereo partly shown) [Leucovorin], the figure is less than 0.01%.

Source of the values: article PMC2151243 (British Journal of Cancer, 1998).
